In ChEMBL document CHEMBL3885881, “DrugMatrix”:

Species on record: Rattus norvegicus
Experiment: DrugMatrix - Regimen: Daily Repeat
Assay type: toxicity, organism-based, Sprague-Dawley
Design: regimen Daily Repeat, gender Male, age 6-8 weeks
Conditions: in vivo, vehicle 100 % SALINE; for ABSOLUTE BASOPHIL / ABSOLUTE EOSINOPHIL / ABSOLUTE LYMPHOCYTE / ABSOLUTE MONOCYTE / ABSOLUTE SEGMENTED NEUTROPHIL / BASOPHIL / EOSINOPHIL / ERYTHROCYTE COUNT / HEMATOCRIT / HEMOGLOBIN / LEUKOCYTE COUNT / LYMPHOCYTE / MEAN CORPUSCULAR HEMOGLOBIN / MEAN CORPUSCULAR HEMOGLOBIN CONCENTRATION / MEAN CORPUSCULAR VOLUME / MONOCYTE / NEUTROPHIL / NUCLEATED RED BLOOD CELLS / PLATELET COUNT: tissue Blood
[1] = iv, 0 mg/kg, 72 h, dose level Control, time 3 day
[2] = iv, 0 mg/kg, 72 h, tissue Plasma, dose level Control, time 3 day
[3] = iv, 0 mg/kg, 120 h, dose level Control, time 5 day
[4] = iv, 0 mg/kg, 120 h, tissue Plasma, dose level Control, time 5 day
[5] = iv, 6 mg/kg, 72 h, dose level Low, time 3 day
[6] = iv, 6 mg/kg, 72 h, tissue Plasma, dose level Low, time 3 day

CARBOPLATIN
TOTAL PROTEIN (ip, 5 mg/kg, […], tissue Plasma, route intraperitoneal, dose level High, time 28 day): 6.92 G/DL | ABSOLUTE BASOPHIL [1]: 0 CELLS/uL | ABSOLUTE EOSINOPHIL [1]: 0 CELLS/uL | ABSOLUTE LYMPHOCYTE [1]: 7026.17 CELLS/uL | ABSOLUTE MONOCYTE [1]: 44.33 CELLS/uL | ABSOLUTE SEGMENTED NEUTROPHIL [1]: 379.5 CELLS/uL | BASOPHIL [1]: 0% | EOSINOPHIL [1]: 0% | ERYTHROCYTE COUNT [1]: 5.49 x10E6/uL | HEMATOCRIT [1]: 33.67% | HEMOGLOBIN [1]: 13.17 G/DL | LEUKOCYTE COUNT [1]: 7.45 x10E3/uL | LYMPHOCYTE [1]: 94% | MEAN CORPUSCULAR HEMOGLOBIN [1]: 24.03 pg | MEAN CORPUSCULAR HEMOGLOBIN CONCENTRATION [1]: 39.15 G/DL | MEAN CORPUSCULAR VOLUME [1]: 61.4 fL | MONOCYTE [1]: 0.67% | NEUTROPHIL [1]: 5.33% | NUCLEATED RED BLOOD CELLS [1]: 0.17 /100WBC | PLATELET COUNT [1]: 1062.5 x10E3/uL | ALANINE AMINOTRANSFERASE [2]: 53.17 u/L | ALKALINE PHOSPHATASE [2]: 339.83 u/L | ASPARTATE AMINOTRANSFERASE [2]: 83.33 u/L | BLOOD UREA NITROGEN [2]: 16 mg/dL | CARBON DIOXIDE [2]: 32.5 mmol/L | CHLORIDE [2]: 98 MEQ/L | CHOLESTEROL [2]: 74.67 mg/dL | CREATINE PHOSPHOKINASE [2]: 284 u/L | CREATININE [2]: 0.2 mg/dL | GLUCOSE [2]: 128.67 mg/dL | LACTATE DEHYDROGENASE [2]: 110.33 u/L | LIPASE [2]: 9 u/L | PHOSPHORUS [2]: 11.73 mg/dL | POTASSIUM [2]: 6.34 MEQ/L | TOTAL BILIRUBIN [2]: 0.18 mg/dL | TOTAL PROTEIN [2]: 6.2 G/DL | URIC ACID [2]: 1.28 mg/dL | ABSOLUTE BASOPHIL [3]: 0 CELLS/uL | ABSOLUTE EOSINOPHIL [3]: 26.67 CELLS/uL | ABSOLUTE LYMPHOCYTE [3]: 8334.17 CELLS/uL | ABSOLUTE MONOCYTE [3]: 29.5 CELLS/uL | ABSOLUTE SEGMENTED NEUTROPHIL [3]: 593 CELLS/uL | BASOPHIL [3]: 0% | EOSINOPHIL [3]: 0.33% | ERYTHROCYTE COUNT [3]: 5.44 x10E6/uL | HEMATOCRIT [3]: 33.77% | HEMOGLOBIN [3]: 13.05 G/DL | LEUKOCYTE COUNT [3]: 8.98 x10E3/uL | LYMPHOCYTE [3]: 92.33% | MEAN CORPUSCULAR HEMOGLOBIN [3]: 24 pg | MEAN CORPUSCULAR HEMOGLOBIN CONCENTRATION [3]: 38.67 G/DL | MEAN CORPUSCULAR VOLUME [3]: 62.05 fL | MONOCYTE [3]: 0.33% | NEUTROPHIL [3]: 7% | NUCLEATED RED BLOOD CELLS [3]: 0 /100WBC | PLATELET COUNT [3]: 987 x10E3/uL | ALANINE AMINOTRANSFERASE [4]: 43.5 u/L | ALKALINE PHOSPHATASE [4]: 310.17 u/L | ASPARTATE AMINOTRANSFERASE [4]: 76.67 u/L | BLOOD UREA NITROGEN [4]: 17 mg/dL | CHLORIDE [4]: 100.33 MEQ/L | CHOLESTEROL [4]: 69.33 mg/dL | CREATINE PHOSPHOKINASE [4]: 218.67 u/L | CREATININE [4]: 0.22 mg/dL | GLUCOSE [4]: 155.17 mg/dL | PHOSPHORUS [4]: 11.2 mg/dL | POTASSIUM [4]: 5.5 MEQ/L | TOTAL BILIRUBIN [4]: 0.18 mg/dL | TOTAL PROTEIN [4]: 5.97 G/DL | URIC ACID [4]: 0.88 mg/dL | ABSOLUTE BASOPHIL [5]: 0 CELLS/uL | ABSOLUTE EOSINOPHIL [5]: 20.67 CELLS/uL | ABSOLUTE LYMPHOCYTE [5]: 6996.67 CELLS/uL | ABSOLUTE MONOCYTE [5]: 29.33 CELLS/uL | ABSOLUTE SEGMENTED NEUTROPHIL [5]: 353.33 CELLS/uL | BASOPHIL [5]: 0% | EOSINOPHIL [5]: 0.33% | ERYTHROCYTE COUNT [5]: 5.49 x10E6/uL | HEMATOCRIT [5]: 35.33% | HEMOGLOBIN [5]: 13.67 G/DL | LEUKOCYTE COUNT [5]: 7.4 x10E3/uL | LYMPHOCYTE [5]: 94.67% | MEAN CORPUSCULAR HEMOGLOBIN CONCENTRATION [5]: 38.67 G/DL | MONOCYTE [5]: 0.33% | NEUTROPHIL [5]: 4.67% | NUCLEATED RED BLOOD CELLS [5]: 0 /100WBC | PLATELET COUNT [5]: 803.67 x10E3/uL | ALANINE AMINOTRANSFERASE [6]: 44.67 u/L | ALBUMIN [6]: 4.3 G/DL | ALKALINE PHOSPHATASE [6]: 291.67 u/L | ASPARTATE AMINOTRANSFERASE [6]: 75.67 u/L | CARBON DIOXIDE [6]: 32 mmol/L | CHLORIDE [6]: 97.67 MEQ/L | CHOLESTEROL [6]: 72.33 mg/dL | CREATINE PHOSPHOKINASE [6]: 262.33 u/L | CREATININE [6]: 0.2 mg/dL | GLUCOSE [6]: 147.33 mg/dL | LACTATE DEHYDROGENASE [6]: 105 u/L | LIPASE [6]: 9 u/L | POTASSIUM [6]: 6.04 MEQ/L | TOTAL BILIRUBIN [6]: 0.17 mg/dL
